This note sets out measurements from patent publication US20240217990A1 (Gilead Sciences, Inc., priority 2021, published 2024).

One may read the EC50 as the concentration needed to bring the measured effect to its halfway point.

For one test, the target named is T1, TLR7 (Homo sapiens, UniProt Q9NYK1).
T1 construct: Human peripheral blood mononuclear cells (PBMCs) consist of lymphocytes, monocytes and dendritic cells that express TLR7, TLR8 and TLR9; endogenous in cells; host or cells: cryopreserved human PBMCs from healthy donors
T1 sequence (Q9NYK1 27-1049): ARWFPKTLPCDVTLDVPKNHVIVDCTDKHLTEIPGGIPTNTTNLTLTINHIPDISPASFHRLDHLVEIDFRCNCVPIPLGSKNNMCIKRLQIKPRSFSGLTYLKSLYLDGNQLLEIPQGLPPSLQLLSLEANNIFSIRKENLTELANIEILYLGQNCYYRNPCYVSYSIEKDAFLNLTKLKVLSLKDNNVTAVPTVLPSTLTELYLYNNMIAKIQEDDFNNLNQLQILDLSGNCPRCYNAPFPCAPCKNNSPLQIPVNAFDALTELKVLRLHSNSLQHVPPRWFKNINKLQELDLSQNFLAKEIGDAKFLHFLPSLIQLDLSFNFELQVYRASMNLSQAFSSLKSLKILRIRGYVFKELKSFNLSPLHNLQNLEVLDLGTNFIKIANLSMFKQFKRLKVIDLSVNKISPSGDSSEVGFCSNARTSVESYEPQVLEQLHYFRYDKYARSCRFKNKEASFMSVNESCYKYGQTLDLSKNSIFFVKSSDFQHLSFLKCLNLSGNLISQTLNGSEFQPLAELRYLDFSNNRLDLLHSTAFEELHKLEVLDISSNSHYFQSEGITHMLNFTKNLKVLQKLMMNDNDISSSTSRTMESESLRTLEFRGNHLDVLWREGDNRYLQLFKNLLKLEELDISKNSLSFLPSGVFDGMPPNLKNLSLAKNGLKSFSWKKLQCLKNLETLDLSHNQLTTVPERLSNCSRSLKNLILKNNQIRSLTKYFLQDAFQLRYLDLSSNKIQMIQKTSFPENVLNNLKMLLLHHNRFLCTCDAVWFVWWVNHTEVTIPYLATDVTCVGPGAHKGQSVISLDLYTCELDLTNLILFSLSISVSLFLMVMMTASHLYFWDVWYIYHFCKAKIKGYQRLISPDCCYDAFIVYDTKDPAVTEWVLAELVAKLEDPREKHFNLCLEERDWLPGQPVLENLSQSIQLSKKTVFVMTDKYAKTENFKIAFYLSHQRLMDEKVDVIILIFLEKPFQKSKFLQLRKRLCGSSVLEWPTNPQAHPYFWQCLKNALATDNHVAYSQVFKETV
Briefly: TLR7 human PBMC cell-based assay (antagonist, GS-986 stimulated cytokine release). The following applies: human PBMCs; TLR7 agonist GS-986 400 nM, 6 hours; cytokines (IL-6 and IFNα) in supernatant; read-out: TLR-7 EC50. Summed up: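 EC50 derived by sigmoidal fitting of IL-6 and IFNα levels, quantified by electrochemiluminescence in supernatants of human PBMCs given 400 nM GS-986 for 6 h. Cells (100,000/well in RPMI-1640, 10% FBS) had received test antagonist 1 h beforehand, 10 doses in quadruplicate, at 37 °C.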

The target of the next test is T2, TLR8 (Homo sapiens, UniProt Q9NR97).
T2 construct: Human peripheral blood mononuclear cells (PBMCs) consist of lymphocytes, monocytes and dendritic cells that express TLR7, TLR8 and TLR9; endogenous in cells; host or cells: cryopreserved human PBMCs from healthy donors
T2 sequence (Q9NR97 27-1041): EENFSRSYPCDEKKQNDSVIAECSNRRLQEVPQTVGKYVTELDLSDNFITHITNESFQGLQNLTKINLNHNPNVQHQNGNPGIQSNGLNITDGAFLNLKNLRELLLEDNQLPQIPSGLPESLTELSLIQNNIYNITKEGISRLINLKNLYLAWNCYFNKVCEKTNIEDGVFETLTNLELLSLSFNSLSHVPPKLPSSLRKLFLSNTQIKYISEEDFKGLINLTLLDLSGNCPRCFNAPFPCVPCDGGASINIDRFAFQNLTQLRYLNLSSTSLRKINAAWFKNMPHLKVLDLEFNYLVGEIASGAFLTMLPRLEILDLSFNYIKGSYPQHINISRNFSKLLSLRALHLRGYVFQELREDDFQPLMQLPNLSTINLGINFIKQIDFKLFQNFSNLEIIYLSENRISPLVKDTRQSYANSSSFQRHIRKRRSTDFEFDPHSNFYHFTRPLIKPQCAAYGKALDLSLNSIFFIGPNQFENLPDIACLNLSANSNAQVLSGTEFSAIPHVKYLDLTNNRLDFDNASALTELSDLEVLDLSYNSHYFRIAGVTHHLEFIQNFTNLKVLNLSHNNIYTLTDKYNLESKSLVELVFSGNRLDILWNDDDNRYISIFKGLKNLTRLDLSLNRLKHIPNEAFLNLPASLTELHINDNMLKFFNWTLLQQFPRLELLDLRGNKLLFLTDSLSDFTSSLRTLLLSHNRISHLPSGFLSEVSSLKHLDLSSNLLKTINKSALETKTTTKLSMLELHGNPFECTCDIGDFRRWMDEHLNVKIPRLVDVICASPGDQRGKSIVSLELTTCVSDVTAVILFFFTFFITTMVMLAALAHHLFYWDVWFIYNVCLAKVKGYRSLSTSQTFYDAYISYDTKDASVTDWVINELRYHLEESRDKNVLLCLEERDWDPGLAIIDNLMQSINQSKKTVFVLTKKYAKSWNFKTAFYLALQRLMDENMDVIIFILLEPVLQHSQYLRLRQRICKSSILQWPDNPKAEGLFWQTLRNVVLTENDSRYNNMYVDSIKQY
Briefly: TLR8 human PBMC cell-based assay (antagonist, Compound A stimulated cytokine release). As to conditions: human PBMCs; TLR8 agonist Compound A 800 nM, 6 hours; cytokines (TNFa and IL 12p40) in supernatant; read-out: TLR-8 EC50. Summed up:
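Cryopreserved donor PBMCs (100,000/well, RPMI + 10% FBS) were preincubated 1 h with antagonist (10-point dose response, quadruplicate), then stimulated with Compound A (800 nM final) for 6 h at 37 °C. TNFa and IL-12p40 in supernatants were measured by electrochemiluminescence; sigmoidal fits gave EC50.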

Consider `Cc1cc(-c2[nH]c3cc(C4CCN(CCS(C)(=O)=O)CC4)sc3c2C(C)C)cn2ncnc12` [Example 255, 6-isopropyl-5-(8-methyl-[1,2,4]triazolo[1,5-a]pyridin-6-yl)-2-(1-(2-(methylsulfonyl)ethyl)piperidin-4-yl)-4H-thieno[3,2-b]pyrrole], for which the EC50 came out at 4.1 nM at TLR7 and 3.2 nM on TLR8.
Take `Cc1cc(-c2[nH]c3cc(C4CCN(S(=O)(=O)C5CCNCC5)CC4)sc3c2C(C)C)cn2ncnc12` [Example 184]: the results for the EC50 at TLR7 and on TLR8 were 0.2 nM and 2.8 nM, respectively.
The corresponding values for `Cc1cc(-c2[nH]c3cc(C(=O)N4CCCC(CN(C)C)C4)sc3c2C(C)C)cn2ncnc12` (stereo not drawn) [Example 112] are 2.9 nM and 6.4 nM.
The corresponding values for `Cc1cc(-c2[nH]c3cc(C(=O)N4CCNC(C(F)F)C4)sc3c2C(C)C)cn2ncnc12` (stereo not drawn) [Example 130] are 40.7 nM and 28.6 nM.
For `Cc1c(C(=O)N2CCNCC2)sc2c(C(C)C)c(-c3cc(C)c4ncnn4c3)[nH]c12` [Example 240, (6-isopropyl-3-methyl-5-(8-methyl-[1,2,4]triazolo[1,5-a]pyridin-6-yl)-4H-thieno[3,2-b]pyrrol-2-yl)(piperazin-1-yl)methanone] the same measures were 21 nM and 301 nM.
Turning to `Cc1c(C(=O)N(C)C2CCNCC2)sc2c(C(C)C)c(-c3cc(C)c4ncnn4c3)[nH]c12` [Example 241], the figures for the EC50 at TLR7 and at TLR8 were 1.4 nM and 314 nM, respectively.
The corresponding values for `Cc1cc(-c2[nH]c3cc(-c4nnc(C5CCN(CC(N)=O)CC5)s4)sc3c2C(C)C)cn2ncnc12` [Example 168] are 2.7 nM and 2.8 nM.
Regarding `Cc1cc(-c2[nH]c3cc(-c4nc(C5CCNCC5)no4)sc3c2C(C)C)cn2ncnc12` [Example 46, 5-(6-isopropyl-5-(8-methyl-[1,2,4]triazolo[1,5-a]pyridin-6-yl)-4H-thieno[3,2-b]pyrrol-2-yl)-3-(piperidin-4-yl)-1,2,4-oxadiazole], the results for the EC50 on TLR7 and on TLR8 were 0.1 nM and 3.8 nM, respectively.
For `Cc1cc(-c2[nH]c3cc(C4CCCN(CC(N)=O)C4)sc3c2C(C)C)cn2ncnc12` (stereo not drawn) [Example 171] the same measures were 24.5 nM and 14.6 nM.
The corresponding values for `Cc1cc(-c2[nH]c3cc(C(=O)N4C[C@@H]5[C@@H](N)[C@@H]5C4)sc3c2C(C)C)cn2ncnc12` [Example 74] are 10.5 nM and 10.5 nM.
The corresponding values for `Cc1c(-c2[nH]c3cc(C(=O)N(C)C4CCN(C)CC4)sc3c2C(C)C)cn2ncnc2c1C` [Example 151] are 0.8 nM and 0.6 nM.
`Cc1cc(-c2[nH]c3cc(C(=O)N(C)C4CCC(N5CCC(F)(F)C5)CC4)sc3c2C(C)C)cn2ncnc12` (stereo not drawn) [Example 254]: the results for the EC50 at TLR7 and on TLR8 were 34.8 nM and 136 nM, respectively.
In the case of `Cc1cc(-c2[nH]c3cc(C4CCCC5(CNC5)C4)sc3c2C(C)C)cn2ncnc12` (stereo not drawn) [Example 159], the EC50 at TLR7 amounted to 1.2 nM; on TLR8, 37.5 nM.
With `Cc1cc(-c2[nH]c3cc(C(=O)N(C)CCN(C)C)sc3c2C(C)C)cn2ncnc12` [Example 136], the EC50 at TLR7 came out at 0.7 nM; on TLR8, 29.8 nM.
For `Cc1cc(-c2[nH]c3cc(C(=O)N(C)C4CCNCC4)sc3c2C(C)C)cn2ncnc12` [Example 56, 6-isopropyl-N-methyl-5-(8-methyl-[1,2,4]triazolo[1,5-a]pyridin-6-yl)-N-(4-piperidyl)-4H-thieno[3,2-b]pyrrole-2-carboxamide] the same measures were 0.5 nM and 10.2 nM.
For `Cc1cc(-c2[nH]c3cc(C(=O)N4CCNCC4)sc3c2C(C)C)cn2nnnc12` [Example 65] the same measures were 1.8 nM and 5.4 nM.
Take `Cc1cc(-c2[nH]c3cc(C(=O)N(C)[C@@H]4CCCNC4)sc3c2C(C)C)cn2ncnc12` [Example 153]: the figures for the EC50 at TLR7 and on TLR8 were 2.4 nM and 6.5 nM, respectively.
The corresponding values for `Cc1cc(-c2[nH]c3cc(-c4nc(C5CCNCC5)no4)sc3c2C(C)C)cc(C)n1` [Example 55] are 7.6 nM and 14.9 nM.
For `Cc1cc(-c2[nH]c3cc(C(=O)N4CCC5(CCNC5)C4)sc3c2C(C)C)cc(C)n1` (stereo not drawn) [Example 14] the same measures were 311 nM and 586 nM.
With `CCc1c(-c2cc(C)c3ncnn3c2)[nH]c2cc(-c3nc4ccc(N5CCN(CC(N)=O)CC5)cc4[nH]3)sc12` [Example 169], the EC50 came out at 146 nM on TLR7 and 72 nM at TLR8.
On to `Cc1cc(-c2[nH]c3cc(C(=O)N4C[C@H](N)C[C@H](C(F)(F)F)C4)sc3c2C(C)C)cn2ncnc12` [Example 59], for which the EC50 at TLR7 was determined as 24.1 nM; on TLR8, 15.4 nM.
The corresponding values for `Cc1cc(-c2[nH]c3cc(C4CCC5(C4)CN(CC(N)=O)C5)sc3c2C(C)C)cn2ncnc12` (racemic) [Example 295, 2-(6-(6-Isopropyl-5-(8-methyl-[1,2,4]triazolo[1,5-a]pyridin-6-yl)-4H-thieno[3,2-b]pyrrol-2-yl)-2-azaspiro[3.4]octan-2-yl)acetamide] are 0.14 nM and 1.19 nM.
In the case of `Cc1cc(-c2[nH]c3cc(-c4cnn(C5CCN(CCO)CC5)c4)sc3c2C(C)C)cn2ncnc12` [Example 189], the values for the EC50 on TLR7 and at TLR8 were 1.3 nM and 0.7 nM, respectively.
With `Cc1cc(-c2[nH]c3cc(C(=O)N4CCN[C@@H](CO)C4)sc3c2C(C)C)cn2ncnc12` [Example 122], the EC50 at TLR7 came to 0.9 nM; at TLR8, 2.6 nM.
With `Cc1cc(-c2[nH]c3cc(C(=O)N4CCC5(CCNC5)CC4)sc3c2C(C)C)cn2ncnc12` [Example 121], the 50% effective concentration (EC50) on TLR7 was 1.2 nM; on TLR8, 9 nM.
The corresponding values for `Cc1cc(-c2[nH]c3cc(-c4nc(C5CCN(CC(N)=O)CC5)no4)sc3c2C(C)C)cn2ncnc12` [Example 166] are 5.1 nM and 5.1 nM.
`Cc1cc(-c2[nH]c3cc(C4CCN(CC(N)=O)CC4)sc3c2C(C)C)cn2ncnc12` [Example 164, 2-[4-[6-isopropyl-5-(8-methyl-[1,2,4]triazolo[1,5-a]pyridin-6-yl)-4H-thieno[3,2-b]pyrrol-2-yl]-1-piperidyl]acetamide]: the results for the EC50 at TLR7 and on TLR8 were 1.5 nM and 2.8 nM, respectively.
